One compound from US20250387481A1, “PRE-TREATED T CELLS FOR USE AS A MEDICAMENT” (STICHTING HET NEDERLANDS KANKER INSTITUUT-ANTONI VAN …, priority 2022, published 2025) can be followed below.

For series [1], the system named is KB1P tumors. As to the kind of experiment: Drug treatment in vivo of mice bearing KB1P tumors. Further details: species or system mouse. The protocol: For tumor generation, tumor organoids were transplanted into the 4th mammary fat pad of FVB female mice. Rimadyl (0.067 mg/ml, Zoetis) was administered to mice in the drinking water from 24 h before surgery and for 48 h after surgery. Mice were also treated with temgesic (0.1 mg/kg, Indivior Europe Limited), 1 hr before and 12 h after surgery. Mice were anesthetized with isoflurane (2%, v/v) and their eyes were covered with duratears (Alcon). About 100,000 single cells derived from KB1P organoids or 200,000 single cells derived from MMTV-PyMT organoids were injected in 30 μl of BME (Amsbio, Cat. No. 3533-005-02). Mice were weighed and monitored three times a week after transplantation of tumor organoids. Tumor volume was measured with calipers three times weekly. The researcher performing the measurement of tumor volume was blinded to the treatment group. For survival experiments, endpoint was reached when tumor reached 2000 mm3. For specific experiments, reference is made to the schematic representations of treatment timelines depicted in the figures.
Once tumors were established and reached a size of ˜7×7 mm, mice were randomized into treatment groups with the following drug dosages and timeline: • AC+T treatment: every 14 days, cyclophosphamide (144 mg/kg, administered via intraperitoneal injection), doxorubicin (5 mg/kg, administered via intravenous injection) and docetaxel (25 mg/kg, resuspended in acetonitrile containing 0.1% acetic acid, administered via intravenous injection). Doxorubicin hydrochloride (Adriamycin) and cyclophosphamide (C), when combined in a treatment, are herein referred to as “AC”. Taxanes, as broadly described and disclosed herein, are referred to as “T”. In one example, said taxane is docetaxel. • AC treatment: every 14 days, cyclophosphamide (144 mg/kg, administered via intraperitoneal injection) and doxorubicin (5 mg/kg administered via intravenous injection). • Docetaxel treatment: every 14 days, docetaxel (25 mg/kg, re-suspended in acetonitrile containing 0.1% acetic acid and administered via intravenous injections). • Vehicle control for chemotherapy: every 14 days, the same volume of the vehicle as the corresponding chemotherapy was administered to mice. […]

Series [2] deals with Jurkat T cells. Nature of the series: MTT assessment of Jurkat T cell survival. It is filed as cell-based, human. The following applies: 5 nmol/L, 72 h. The protocol: Preparation of Jurkat T cells: Jurkat T cells were cultured in Roswell Park Memorial Institute (RPMI) 1640 Medium (Thermo Fisher Scientific, Cat. No. 21875034) containing FBS (10%, Thermo Fisher Scientific, Cat. No. A4766801), Penicillin/streptomycin (10,000 U/ml; Thermo Fisher Scientific, Cat. No. 15140-122), and Ultraglutamine (2 mmol/L, Lonza, Cat. No. BE17-605E/U1). Jurkat T cells were kept in 20% O2, 5% CO2 and at 37 degrees Celsius. Jurkat T cells were treated for 72 h with PBS or with docetaxel (docetaxel 5 nmol/L). Subsequently, Jurkat T cells were collected and washed 3 times in PBS to remove residual chemotherapy.
About 100,000 T cells were seeded per well in a 96-well plate and treated with
increasing doses of docetaxel, paclitaxel, or carboplatin for 72 h. Next, T cells were incubated with Thiazolyl Blue Tetrazolium Bromide (0.5 mg/ml, Sigma Aldrich, Cat. No. 298-93-1) for 3 hr in the dark at 37 degrees Celsius. Subsequently, T cells were incubated for 16 h in the dark in a lysis buffer (40% dimerhylofrmamide, 0.55 mol/L sodium dodecyl sulfate, 2% acetic acid, 8.4 mmol/L HCl in MilliQ water). Plates were read with a 565 nm wavelength.

Series [3] has as its system human healthy lung organoids. Nature of the series: Healthy organoids killing assay with tumor-reactive T cells. Type of series: cell-based. The conditions noted are these: tumor-reactive T cells pre-treated with docetaxel. The protocol:
To express luciferase in the tumor organoids, we used pLenti CMV Puro LUC (w168-1; Plasmid #17477; Addgene). Tumor-reactive PBMC were thawed in pre-warmed T cell medium and incubated for 15 minutes with 25 U/ml Benzonase. After washing, cells were re-suspended at 2−3×10^6 cells/ml in T cell medium and cultured overnight at 37° C. The day after, PBMC were incubated with (or without) 10 nmol/L docetaxel for 48 hr. To determine the sensitivity of tumor and healthy organoids to T cell-mediated killing, flatbottom non-tissue culture treated plates were coated with 5 μg/ml αCD28 and kept at 4° C. overnight prior to co-culture. Tumor organoids were previously transduced with luciferase reporter gene. Organoids were isolated from Geltrex 48 hours prior to co-culture and stimulated with 200 ng/ml IFNγ for 24 hr prior to co-culture. The next day, part of the organoids was dissociated to single cells and counted using a hemocytometer. […] At the end of the 72 hours, tumor and healthy organoids viability in the different conditions was evaluated by microscopy, taking bright-field pictures at 5 and 10× magnification. Tumor cell viability in the different conditions was also measured by luciferase reporter assay using 3 μg/mL luciferin. Luminescence was measured with a Tecan reader (1,000 ms exposure).

Structures are written as SMILES.

Turning to `CC(=O)O[C@@]12CO[C@@H]1C[C@H](O)[C@@]1(C)C(=O)[C@H](O)C3=C(C)[C@@H](OC(=O)[C@H](O)[C@@H](NC(=O)OC(C)(C)C)c4ccccc4)C[C@@](O)([C@@H](OC(=O)c4ccccc4)[C@H]21)C3(C)C` [docetaxel], in series [1] (depletion of CD4 alone, CD8 alone or both), the “anti-tumor effects of docetaxel (survival) upon T cell depletion” value is listed as “abrogated the anti-tumor effects”. For the same compound, the tumor outgrowth result in series [1] (docetaxel 25 mg/kg intravenous every 14 days vs vehicle) is recorded as “delayed tumor outgrowth”. The “CD4 and CD8 T cell infiltration (immunohistochemistry)” value in series [1] (docetaxel vs vehicle) was “enhanced CD4 and CD8 T cell infiltration”. In series [1] (tumors isolated 24 h after the second docetaxel administration), the “accumulation of mitotic figures in tumors” value was “did not observe an accumulation of mitotic figures”. Moreover, in series [2], the “Jurkat T cells survival (MTT)” value is listed as “did not significantly reduce Jurkat T cells survival”. For the same compound, the “killing of healthy organoids” value in series [3] was “not against healthy organoids”.
